Measured values published in patent publication US7585875B2, “Substituted pyrazolo[1,5-a]pyridine compounds and their methods of use” (Avigen, Inc., priority 2006, dated 2009).
Where a name gives a salt, the structure may show the parent alone.

tested on: mechanical allodynia after chronic constriction injury (CCI) to the sciatic nerve; test: Mechanical allodynia by response to von Frey fibers, rat chronic constriction injury (CCI) model; format: in vivo, male Sprague-Dawley rats; conditions: 10 mg/kg IP, 2 hr post dosing
Description: Chronic Constriction Injury: Heat and cold allodynia responses as well as mechanical allodynia sensations can be evaluated as described below in rats having a chronic constriction injury (CCI). A unilateral mononeuropathy is produced in rats using the chronic constriction injury model described in Bennett et al., Pain (1988) 33:87-107. CCI is produced in anesthetized rats as follows. The lateral aspect of each rat's hind limb is shaved and scrubbed with Nolvasan. Using aseptic techniques, an incision is made on the lateral aspect of the hind limb at the mid-thigh level. The biceps femoris is bluntly dissected to expose the sciatic nerve. On the right hind limb of each rat, four loosely tied ligatures (for example, Chromic gut 4.0; Ethicon, Johnson and Johnson, Somerville, N.J.) are made around the sciatic nerve approximately 1-2 mm apart. On the left side of each rat, an identical dissection is performed except that the sciatic nerve is not ligated (sham). The muscle is closed with a continuous suture pattern with, e.g., 4-0 Vicryl (Johnson and Johnson, Somerville, N.J.) and the overlying skin is closed with wound clips. The rats are ear-tagged for identification purposes and returned to animal housing.
To induce allodynia, male Sprague-Dawley rats underwent chronic constriction injury (CCI) to the sciatic nerve as described by Bennett and Xie, Pain 1988; 33(1):87-107. The plantar surface of the hind paws was stimulated with von Frey filaments (Stoelting) to induce a withdrawal response by blinded personnel. The bending force of fiber required to induce a 50% withdrawal response was calculated following CCI surgery (pre-dosing baseline). N=5-6 allodynic rats received a single intraperitoneal administration of test compound or vehicle. Two hours post-dosing, 50% paw withdrawal threshold was determined again by blinded testers using von Frey filaments. The change in 50% withdrawal threshold relative to pre-dosing baseline is reported in Table 2 for various substituted pyrazolo[1,5-a]pyridine compounds of the invention.

| SMILES | Mechanical Allodynia ΔWT (change from pre-dosing 50% withdrawal threshold) | Observation noted beside the allodynia value |
| --- | --- | --- |
| CC(C)c1nn2ccccc2c1C(N)C(C)C (centres unmarked) [Compound 1051, 1-(2-isopropylpyrazolo[1,5-a]pyridin-3-yl)-2-methylpropan-1-amine hydrochloride] | 0.29 grams |  |
| CC(N)C(=O)c1c(-c2ccc(F)cc2)nn2ccccc12 (centres unmarked) [Compound 1052, 2-amino-1-(2-(4-fluorophenyl)pyrazolo[1,5-a]pyridin-3-yl)propan-1-one hydrochloride] | 10 mg/kg: 0.39 grams |  |
| COc1nn2ccccc2c1C(=O)C(C)C [Compound 1055, 1-(2-methoxypyrazolo[1,5-a]pyridin-3-yl)-2-methylpropan-1-one] | 10 mg/kg: 2.80 grams |  |
| COc1nn2ccccc2c1C(=O)C(C)N (centres unmarked) [Compound 1057, 2-amino-1-(2-methoxypyrazolo[1,5-a]pyridin-3-yl)propan-1-one] | 0.06 grams |  |
| CCC(N)C(=O)c1c(C(C)C)nn2ccccc12 (centres unmarked) [Compound 1060, 2-amino-1-(2-isopropylpyrazolo[1,5-a]pyridin-3-yl)butan-1-one] | 10 mg/kg: 1.87 grams |  |
| CC(C)CC(N)C(=O)c1c(C(C)C)nn2ccccc12 (centres unmarked) [Compound 1061, 2-amino-1-(2-isopropylpyrazolo[1,5-a]pyridin-3-yl)-4-methylpentan-1-one] | 0 grams |  |
| CC(=O)OC(C)C(=O)c1c(C(C)C)nn2ccccc12 (centres unmarked) [Compound 1067, 1-(2-isopropylpyrazolo[1,5-a]pyridin-3-yl)-1-oxopropan-2-yl acetate] | 0.46 grams |  |
| CC(O)C(=O)c1c(C(C)C)nn2ccccc12 (centres unmarked) [Compound 1068, 2-hydroxy-1-(2-isopropylpyrazolo[1,5-a]pyridin-3-yl)propan-1-one] | 0.7 grams |  |
| COC(C)C(=O)c1c(C(C)C)nn2ccccc12 (centres unmarked) [Compound 1069, 1-(2-isopropylpyrazolo[1,5-a]pyridin-3-yl)-2-methoxypropan-1-one] | 0.13 grams |  |
| CCC(=O)c1c(-c2ccc(F)cc2)nn2ccccc12 [Compound 1070, 1-(2-(4-fluorophenyl)pyrazolo[1,5-a]pyridin-3-yl)propan-1-one] | 0 grams |  |
| CC(C)C(=O)c1c(N(C)C)nn2ccccc12 [Compound 1072, 1-(2-(dimethylamino)pyrazolo[1,5-a]pyridin-3-yl)-2-methylpropan-1-one] | 1.48 grams | lethargy |
| CC(C)c1nn2ccccc2c1C=O [Compound 1073, 2-isopropylpyrazolo[1,5-a]pyridine-3-carbaldehyde] | 0 grams |  |
| CC(C)c1nn2ccccc2c1/C=N/NC(N)=O [Compound 1074, (E)-2-((2-isopropylpyrazolo[1,5-a]pyridin-3-yl)methylene)hydrazinecarboxamide] | 3.64 grams | lethargy |
| CC(N)C(=O)c1c(N(C)C)nn2ccccc12 (centres unmarked) [Compound 1075, 2-amino-1-(2-(dimethylamino)pyrazolo[1,5-a]pyridin-3-yl)propan-1-one] | 0.67 grams |  |
| CCCCC(N)C(=O)c1c(C(C)C)nn2ccccc12 (centres unmarked) [Compound 1077, 2-amino-1-(2-isopropylpyrazolo[1,5-a]pyridin-3-yl)hexan-1-one] | 0.41 grams |  |
| CC(=O)c1c(C(C)C)nn2ccccc12 [Compound 1080, 1-(2-isopropylpyrazolo[1,5-a]pyridin-3-yl)ethanone] | 1.14 grams |  |
| CC(=O)SC(C)C(=O)c1c(C(C)C)nn2ccccc12 (centres unmarked) [Compound 1081, S-1-(2-isopropylpyrazolo[1,5-a]pyridin-3-yl)-1-oxopropan-2-yl ethanethioate] | 0.07 grams |  |
| COCC(N)C(=O)c1c(C(C)C)nn2ccccc12 (centres unmarked) [Compound 1082, 2-amino-1-(2-isopropylpyrazolo[1,5-a]pyridin-3-yl)-3-methoxypropan-1-one] | 0.5 grams |  |
| C/C(=N/O)C(=O)c1c(C(C)C)nn2ccccc12 [Compound 1083, (Z)-2-(hydroxyimino)-1-(2-isopropylpyrazolo[1,5-a]pyridin-3-yl)propan-1-one] | 0 grams |  |
| CC(C)c1nn2ccccc2c1-c1cccc(N)c1 [Compound 1100, 3-(2-isopropyl-pyrazolo[1,5-a]pyridin-3-yl)-phenylamine] | 0 grams |  |
| CC(C)c1nn2ccccc2c1-c1ccc(N)cc1 [Compound 1101, 4-(2-Isopropyl-pyrazolo[1,5-a]pyridin-3-yl)-phenylamine] | 0.02 grams |  |
| CC(C)c1nn2ccccc2c1-c1ccc(N2CCOCC2)cc1 [Compound 1102, 2-Isopropyl-3-(4-morpholin-4-yl-phenyl)-pyrazolo[1,5-a]pyridine] | 0 grams |  |
| CC(C)c1nn2ccccc2c1-c1cn[nH]c1 [Compound 1104, 2-isopropyl-3-(1H-pyrazol-4-yl)-pyrazolo[1,5-a]pyridine] | 0.86 grams |  |
| CC(C)c1nn2ccccc2c1-c1cccnc1 [Compound 1111, 2-Isopropyl-3-pyridin-3-yl-pyrazolo[1,5-a]pyridine] | 0 grams |  |
| CC(C)c1nn2ccccc2c1-c1cnn(C)c1 [Compound 1112, 2-Isopropyl-3-(1-methyl-1H-pyrazol-4-yl)-pyrazolo[1,5-a]pyridine] | 0 grams |  |
| CC(C)c1nn2ccccc2c1-c1ccnc(NCCCO)n1 [Compound 1134, 3-[4-(2-Isopropyl-pyrazolo[1,5-a]pyridin-3-yl)-pyrimidin-2-ylamino]-propan-1-ol] | 0 grams |  |
| CC(C)c1nn2ccccc2c1-c1ccnc(NCCCN2CCN(C)CC2)n1 [Compound 1135, [4-(2-Isopropyl-pyrazolo[1,5-a]pyridin-3-yl)-pyrimidin-2-yl]-[3-(4-methyl-piperazin-1-yl)-propyl]-amine] | 0 grams |  |
| CC(C)c1nn2ccccc2c1-c1ccnc(N)n1 [Compound 1139, 4-(2-Isopropyl-pyrazolo[1,5-a]pyridin-3-yl)-pyrimidin-2-ylamine] | 0.21 grams |  |
| CC(C)c1nn2ccccc2c1-c1cc[nH]n1 [Compound 1141, 2-isopropyl-3-(1H-pyrazol-3-yl)-pyrazolo[1,5-a]pyridine] | 1.04 grams |  |
| CC(NCc1ccccc1)C(=O)c1c(C(C)C)nn2ccccc12 (centres unmarked) [compound 1071, 2-(benzylamino)-1-(2-isopropylpyrazolo[1,5-a]pyridin-3-yl)propan-1-one] | 0.57 grams |  |

same assay, conditions: 20 mg/kg IP, 2 hr post dosing

| SMILES | Mechanical Allodynia ΔWT (change from pre-dosing 50% withdrawal threshold) |
| --- | --- |
| CC(N)C(=O)c1c(-c2ccc(F)cc2)nn2ccccc12 (centres unmarked) [Compound 1052, 2-amino-1-(2-(4-fluorophenyl)pyrazolo[1,5-a]pyridin-3-yl)propan-1-one hydrochloride] | 20 mg/kg: 0.31 grams |
| COc1nn2ccccc2c1C(=O)C(C)C [Compound 1055, 1-(2-methoxypyrazolo[1,5-a]pyridin-3-yl)-2-methylpropan-1-one] | 20 mg/kg: 0 grams |
| CCC(N)C(=O)c1c(C(C)C)nn2ccccc12 (centres unmarked) [Compound 1060, 2-amino-1-(2-isopropylpyrazolo[1,5-a]pyridin-3-yl)butan-1-one] | 20 mg/kg: 0.74 grams |
